Reference: publication PMC13415951 (Journal of Experimental Botany, 2026)
Where a chain is given by its changes, count along the chain named. Several values for one entry are separate records, joined by “and”; a condition that tells them apart may be missing. Identical values can stand only once. Like-named read-outs stand apart in the source and are kept apart here.

Assays:
OsUGT79 [1] = biological target: T1, OsUGT79 (Oryza sativa subsp. japonica, UniProt Q7XT97); experiment: biochemical; type: biochemical
T1 construct: made in house; host or cells: E. coli
T1 sequence (Q7XT97 1-466): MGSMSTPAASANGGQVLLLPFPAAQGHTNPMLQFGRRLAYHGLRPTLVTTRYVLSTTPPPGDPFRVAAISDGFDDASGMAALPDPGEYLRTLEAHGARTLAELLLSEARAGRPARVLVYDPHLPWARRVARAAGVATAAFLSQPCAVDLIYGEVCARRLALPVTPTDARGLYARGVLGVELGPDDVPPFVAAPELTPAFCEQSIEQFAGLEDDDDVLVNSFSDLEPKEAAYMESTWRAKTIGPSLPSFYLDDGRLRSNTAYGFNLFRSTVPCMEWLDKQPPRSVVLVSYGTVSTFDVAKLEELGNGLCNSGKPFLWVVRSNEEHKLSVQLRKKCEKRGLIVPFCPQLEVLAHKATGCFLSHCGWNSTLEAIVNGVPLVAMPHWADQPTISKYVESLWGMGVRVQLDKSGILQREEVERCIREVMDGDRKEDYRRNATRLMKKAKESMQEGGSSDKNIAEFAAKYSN

HvUGT13248 [2] = biological target: T2, HvUGT13248 (Hordeum vulgare subsp. vulgare, UniProt M0Y4P1)
T2 sequence (M0Y4P1 1-475): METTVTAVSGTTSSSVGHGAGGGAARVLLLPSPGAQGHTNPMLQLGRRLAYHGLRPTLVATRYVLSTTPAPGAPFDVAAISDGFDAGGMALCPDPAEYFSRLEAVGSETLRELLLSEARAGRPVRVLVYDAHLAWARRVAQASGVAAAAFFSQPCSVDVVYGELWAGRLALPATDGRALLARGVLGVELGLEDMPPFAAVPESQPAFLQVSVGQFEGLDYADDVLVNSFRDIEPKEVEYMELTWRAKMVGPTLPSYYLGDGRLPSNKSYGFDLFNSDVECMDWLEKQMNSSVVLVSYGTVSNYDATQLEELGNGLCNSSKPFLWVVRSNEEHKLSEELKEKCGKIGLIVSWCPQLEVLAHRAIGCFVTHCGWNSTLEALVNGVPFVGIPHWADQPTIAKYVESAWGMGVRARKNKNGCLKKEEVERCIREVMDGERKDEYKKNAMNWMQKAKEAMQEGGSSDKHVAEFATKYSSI

BdUGT5g03300 [3] = biological target: T3, BdUGT5g03300 (Brachypodium distachyon, UniProt I1IW79); experiment: biochemical
T3 sequence (I1IW79 1-469): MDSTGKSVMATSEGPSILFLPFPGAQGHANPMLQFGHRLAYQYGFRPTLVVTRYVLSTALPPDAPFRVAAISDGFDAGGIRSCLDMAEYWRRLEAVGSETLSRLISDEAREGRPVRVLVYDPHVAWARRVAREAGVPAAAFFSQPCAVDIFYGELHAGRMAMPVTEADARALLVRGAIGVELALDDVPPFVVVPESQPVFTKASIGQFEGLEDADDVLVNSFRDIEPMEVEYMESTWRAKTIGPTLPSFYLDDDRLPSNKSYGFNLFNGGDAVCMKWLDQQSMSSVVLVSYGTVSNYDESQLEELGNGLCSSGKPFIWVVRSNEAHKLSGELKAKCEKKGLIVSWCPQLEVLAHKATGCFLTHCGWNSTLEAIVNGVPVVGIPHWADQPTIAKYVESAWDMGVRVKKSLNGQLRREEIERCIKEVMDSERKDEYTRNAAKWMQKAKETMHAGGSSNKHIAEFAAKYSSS

OsUGT79 [4] = biological target: T1, OsUGT79; experiment: biochemical; type: biochemical; remark: listed apart in the source
OsUGT79 Q202A [5] = biological target: T4, OsUGT79 Q202A (Oryza sativa subsp. japonica, UniProt Q7XT97, Q202A); type: biochemical
T4 sequence (Q7XT97 1-466 Q202A): T1 sequence (Q7XT97 1-466) with Q202A

[6] = biological target: T5, OsUGT79 H122A/L123A/Q202A (Oryza sativa subsp. japonica, UniProt Q7XT97, H122A/L123A/Q202A); experiment: biochemical; type: biochemical
T5 sequence (Q7XT97 1-466 H122A/L123A/Q202A): T1 sequence (Q7XT97 1-466) with H122A, L123A, Q202A

OsUGT79 Q202A [7] = biological target: T4, OsUGT79 Q202A; experiment: biochemical; type: biochemical
B. distachyon Bd21-3 = system: B. distachyon Bd21-3; set-up: species or system Brachypodium distachyon; conditions: in vivo
[8] = system: B. distachyon line OE-10R14; set-up: species or system Brachypodium distachyon; conditions: in vivo
HvUGT13248 [9] = biological target: T2, HvUGT13248; experiment: biochemical; type: biochemical; set-up: made in house; host or cells: E. coli
[10] = biological target: T5, OsUGT79 H122A/L123A/Q202A; type: biochemical
BdUGT5g03300 [11] = biological target: T3, BdUGT5g03300; type: biochemical
[12] = system: wheat cultivar Apogee seedlings; set-up: species or system Triticum aestivum; conditions: in vivo
[13] = substrate: CC1(C)CCC[C@]2(C)[C@@H]3[C@H]1[C@@H](O)[C@@]2(C)C[C@H]3O; experiment: purified protein, by the assay type

In the case of Culmorin-8-sulfate, the “Glucosylation rate of DON, percentage of the control” value (OsUGT79 [1]) is reported as 105±1% and 89±4% and the “Glucosylation rate of DON, percentage of the control” value (HvUGT13248 [2]) is reported as 97±4% and 79±1%.

With Culmorin-11-sulfate the “Glucosylation rate of DON, percentage of the control” value (OsUGT79 [1]) was 91±7% and 61±2%, the “Glucosylation rate of DON, percentage of the control” value (HvUGT13248 [2]) was 90±2% and 49±3% and the “Glucosylation rate of DON, percentage of the control” value (BdUGT5g03300 [3]) was 0.30±0.02%.

For Culmorin-8,11-disulfate, the “Glucosylation rate of DON, percentage of the control” value (OsUGT79 [1]) was 103±2% and 99±7%, the “Glucosylation rate of DON, percentage of the control” value (HvUGT13248 [2]) was 98±2% and the “Glucosylation rate of DON, percentage of the control” value (BdUGT5g03300 [3]) was 95±1% and 78±1%.

With Culmorin-11-glucoside the “Glucosylation rate of DON, percentage of the control” value (OsUGT79 [1]) was 96±7% and 115±5% and the “Glucosylation rate of DON, percentage of the control” value (BdUGT5g03300 [3]) was 0.48±0.03%.

In the case of Culmorin-8-glucoside, the “Glucosylation rate of DON, percentage of the control” value (OsUGT79 [1]) is reported as 97±7% and 91±7%, the “Glucosylation rate of DON, percentage of the control” value (HvUGT13248 [2]) is reported as 92±2% and 81±3% and the “Glucosylation rate of DON, percentage of the control” value (BdUGT5g03300 [3]) is reported as 0.93±0.02%.

With 11-Acetyl-culmorin the “Glucosylation rate of DON, percentage of the control” value (BdUGT5g03300 [3]) was 0.83±0.01%.

With `CC1=C[C@H]2O[C@@H]3[C@H](O)C[C@](C)([C@@]2(CO)[C@H](O)C1=O)[C@]31CO1` [DON, deoxynivalenol] the “K M (DON)” value (OsUGT79 [4]) was 190 µM, the “V max with DON” value (OsUGT79 [4]) was 0.63 µmol/min/mg and the “Specific activity (glucoside formation)” value (OsUGT79 [1]) was 159 ± 33 nmol/min/mg. For the same molecule, the “Specific activity (glucoside formation)” value (OsUGT79 Q202A [5]) was 161 ± 46 nmol/min/mg, the “Specific activity (glucoside formation)” value (HvUGT13248 [2]) was 8.77 ± 0.52 nmol/min/mg and the “K M (DON)” value [6] was 1300 µM. The “V max with DON” value [6] was 0.26 µmol/min/mg, the “K M (DON)” value (OsUGT79 Q202A [7]) was 290 µM and the “V max with DON” value (OsUGT79 Q202A [7]) was 0.85 µmol/min/mg. For the same molecule, the “Specific activity (glucoside formation)” value (BdUGT5g03300 [3]) was 1.07 ± 0.03 nmol/min/mg, the “DON concentration up to which root growth was observed” value (B. distachyon Bd21-3) was “up to 16 mg l^−1” and the “DON concentrations at which root growth was not affected or barely affected” value (B. distachyon Bd21-3) was 2 to 8 mg/L. For the same molecule, the “DON concentration tolerated without significant reduction in root length” value [8] was “up to 50 mg l^−1”, the “K M (DON)” value (HvUGT13248 [9]) was 1800 µM and the “V max with DON” value (HvUGT13248 [9]) was 0.18 µmol/min/mg. The “Specific activity (glucoside formation)” value [10] was 6.60 ± 0.31 nmol/min/mg, the “K M (DON)” value (BdUGT5g03300 [11]) was 1100 µM and the “V max with DON” value (BdUGT5g03300 [11]) was 0.14 µmol/min/mg. The “DON concentration at which root growth was already impaired” value [12] was 3 mg/L and the “Effect on primary and total root length” value [12] was “significant reduction”.

B1: BdUGT5g03380 (Brachypodium distachyon) (protein)
chain: MESVNTSPHSSDHEGGGGGGAHVLLVPLPAQGHMNPMLQFGRRLAYHGLRPTLAATRYVLSTGPPPGAPFRVAAFSDGFDAGGMASCADPVEYCRKFEAVGSSTLAQAIESETAAGRAPTVLVYDPHMAWVPRVARAAGVPVAAFMSQSCAVDLVYGEAWAGRAPLPMADGSALKRRGIVSIDLAAEDLSPFVVSPEIYPKYLDVSIRQFEALDDADDVFVNSFRDLEPLEAEYMEKRWRAKTVGPTLPSFFLGDDRLPSNKAYGVNFFSATAPCMAWLDRQPARSVVLASYGTVYNLESMELDELGNGLCDSGKPFLWVVRSSEAEKLSEQLLGRCKEKGLIVPWCPQLDVLAHNAIGCFLTHCGWNSTTEAIVAGVPMVAMPRSADQPTTAKYVESAWGIGVRVRADEKGLVKRAEVEGCIKKVMDGEMKDEFRGNAAEWMRKAKEAMQEGGSSDKNIAEFAAKYLER
B1 was tested, and the Km [13] was 150 µM and the Vmax [13] was 0.43 ± 0.03 nmol/min/mg.

B2: BdUGT5g03370 (Brachypodium distachyon) (protein)
chain: MDSINTTAQRSIGGGGGHVLLLPFPGMQGHANPMLQLGRRLAYHGLRPTLVVTRYVFSTTATTDGCPFPVAAISDGFDAGGIASCPDTAEYLRRMESVGSETLSRLISDEARAGRPVRVLVYDSHLPWARRAAKRAGVAAAAFLTQLCAVDVIYGEAWAGRVALPLTDGSALRGVLSVELGPDDVPPFVAAPEWYPAFTESALGQFDGLEEADDVLVNSFRDLEPKEADYMELVWRTKTVGPTLPSFYLDDNRLPLNKTYGFNLFSSIALCMEWLDKQVPCSVVLASYGTVANLNSTQLEELGYGLCNSRQPFLWVLRSDEAEKLPKDLRDKCNTKGLIVPFCPQLEVLAHKATGCFLTHCGWNSTIEAIVTGVPMVAIPQWADQPTTAKYVESAWGIGRRACPDRECLVTREKIERCVKEVICGEKEYTRNAAKWMQKAKEAMQQGGSSDKNISDFVAKYL
In the case of B2, the Km [13] is reported as 59 ± 7 µM and the Vmax [13] is reported as 0.57 nmol/min/mg.

B3: HvUGT13248 (Hordeum vulgare subsp. vulgare) (protein)
chain: T2 sequence (M0Y4P1 1-475)
B3 was tested, and the Km ([13]; pH 7.0) was 27 ± 4 µM and the Vmax ([13]; pH 7.0) was 18.2 ± 0.8 nmol/min/mg.
